Laboratory results published in US5672715A, “Herbicidal substituted 3-aryl-pyrazoles” (Monsanto Company, priority 1995, dated 1997).
Several values for one entry are separate records, joined by “and”; a condition that tells them apart may be missing. Identical values can stand only once.

What was measured:
Test in all cases: pre-emergence herbicide test
Format in all cases: in vivo
[1] = test system: Cocklebur; settings: for inhibition at 40.0143 g/ha / inhibition at 200.072 g/ha / inhibition at 1000.92 g/ha / inhibition at 5043.82 g/ha / inhibition at 7.95803 g/ha: Xanthium strumarium, pre-emergence, read-out: % plant inhibition; for inhibition at 40.0143 g/ha: 0.0357 lb/A; for inhibition at 200.072 g/ha: 0.1785 lb/A; for inhibition at 5043.82 g/ha: 4.5 lb/A; for inhibition at 7.95803 g/ha: 0.0071 lb/A
How it was run: (§1)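 Pre-emergence soil treatment: seeds on compacted topsoil, cover layer dosed with test compound in organic solvent (e.g. acetone) or water. Greenhouse, subirrigated as needed, sometimes 1/4 inch overhead water right after treatment. Read-out ~14 d: % inhibition.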

[2] = test system: Corn; settings: for inhibition at 40.0143 g/ha: 0.0357 lb/A; for inhibition at 1000.92 g/ha: 0.893 lb/A; for inhibition at 5043.82 g/ha: 4.5 lb/A; for inhibition at 7.95803 g/ha: 0.0071 lb/A
How it was run: as §1

[3] = test system: Soybean; settings: Glycine max, pre-emergence, read-out: % plant inhibition; for inhibition at 40.0143 g/ha: 0.0357 lb/A; for inhibition at 200.072 g/ha: 0.1785 lb/A; for inhibition at 1000.92 g/ha: 0.893 lb/A; for inhibition at 5043.82 g/ha: 4.5 lb/A; for inhibition at 7.95803 g/ha: 0.0071 lb/A
How it was run: as §1

[4] = test system: Velvetleaf; settings: for inhibition at 40.0143 g/ha / inhibition at 200.072 g/ha / inhibition at 1000.92 g/ha / inhibition at 5043.82 g/ha / inhibition at 7.95803 g/ha: Abutilon theophrasti, pre-emergence, read-out: % plant inhibition; for inhibition at 40.0143 g/ha: 0.0357 lb/A; for inhibition at 200.072 g/ha: 0.1785 lb/A; for inhibition at 5043.82 g/ha: 4.5 lb/A; for inhibition at 7.95803 g/ha: 0.0071 lb/A
How it was run: as §1

[5] = test system: Yellow Foxtail; settings: Setaria, read-out: % plant inhibition; for inhibition at 40.0143 g/ha: 0.0357 lb/A; for inhibition at 200.072 g/ha: 0.1785 lb/A; for inhibition at 1000.92 g/ha: 0.893 lb/A; for inhibition at 5043.82 g/ha: 4.5 lb/A; for inhibition at 7.95803 g/ha: 0.0071 lb/A
How it was run: as §1

[6] = test system: Yellow Nutsedge; settings: Cyperus, read-out: % plant inhibition; for inhibition at 40.0143 g/ha: 0.0357 lb/A; for inhibition at 200.072 g/ha: 0.1785 lb/A; for inhibition at 1000.92 g/ha: 0.893 lb/A; for inhibition at 5043.82 g/ha: 4.5 lb/A; for inhibition at 7.95803 g/ha: 0.0071 lb/A
How it was run: as §1

[7] = test system: Bedstraw Catchweed; settings: for inhibition at 1000.92 g/ha: 0.893 lb/A; for inhibition at 5043.82 g/ha: 4.5 lb/A
How it was run: as §1

[8] = test system: Blackgrass; settings: for inhibition at 200.072 g/ha: 0.1785 lb/A; for inhibition at 5043.82 g/ha: 4.5 lb/A
How it was run: as §1

[9] = test system: Common Chickweed; settings: pre-emergence, read-out: % plant inhibition; for inhibition at 200.072 g/ha: 0.1785 lb/A; for inhibition at 1000.92 g/ha: 0.893 lb/A; for inhibition at 5043.82 g/ha: 4.5 lb/A
How it was run: as §1

[10] = test system: Wheat; settings: Triticum aestivum, pre-emergence, read-out: % plant inhibition; for inhibition at 200.072 g/ha: 0.1785 lb/A; for inhibition at 1000.92 g/ha: 0.893 lb/A; for inhibition at 5043.82 g/ha: 4.5 lb/A
How it was run: as §1

[11] = test system: Broadleaf Signalgrass; settings: Urochloa platyphylla, 0.25 lb/A, read-out: % plant inhibition
How it was run: as §1

[12] = test system: Seedling Johnsongrass; settings: Sorghum halepense, pre-emergence, 0.25 lb/A; read-out: % plant inhibition
How it was run: as §1

[13] = test system: Shattercane; settings: 0.25 lb/A, read-out: % plant inhibition
How it was run: as §1

[14] = test system: Wild Proso Millet; settings: 0.25 lb/A, read-out: % plant inhibition
How it was run: as §1

[15] = Zea mays, pre-emergence, read-out: % plant inhibition
[16] = Zea mays, pre-emergence, 0.1785 lb/A, read-out: % plant inhibition
[17] = Galium aparine, pre-emergence, 0.1785 lb/A, read-out: % plant inhibition
[18] = Galium aparine, pre-emergence, read-out: % plant inhibition
[19] = Alopecurus myosuroides, pre-emergence, read-out: % plant inhibition
[20] = Alopecurus myosuroides, pre-emergence, 0.893 lb/A, read-out: % plant inhibition

SMILES | inhibition at 40.0143 g/ha [1] | inhibition at 200.072 g/ha [1] | inhibition at 1000.92 g/ha ([1]; 0.893 lb/A) | inhibition at 5043.82 g/ha [1] | inhibition at 40.0143 g/ha [2, 15] | inhibition at 200.072 g/ha [2, 16] | inhibition at 1000.92 g/ha [2, 15] | inhibition at 5043.82 g/ha [2, 15] | inhibition at 40.0143 g/ha [3] | inhibition at 200.072 g/ha [3] | inhibition at 1000.92 g/ha [3] | inhibition at 5043.82 g/ha [3] | inhibition at 40.0143 g/ha [4] | inhibition at 200.072 g/ha [4] | inhibition at 1000.92 g/ha ([4]; 0.893 lb/A) | inhibition at 5043.82 g/ha [4] | inhibition at 200.072 g/ha [5] | inhibition at 1000.92 g/ha [5] | inhibition at 200.072 g/ha [6] | inhibition at 1000.92 g/ha [6] | also measured
Cc1c(-c2cc(O)c(Cl)cc2F)nn(C)c1C(F)(F)F [Compound 40] | 0% | 0% | 45% | 100% | 0% | 0% | 5% | 85% | 0% | 0% | 20% | 20% | 0% | 0% | 60% | 100% | 0% | 80% | 0% | 70% | inhibition at 40.0143 g/ha [5]: 0%; inhibition at 5043.82 g/ha [5]: 100%; inhibition at 40.0143 g/ha [6]: 0%; inhibition at 5043.82 g/ha [6]: 0%
COc1cc(-c2nn(C)c(C(F)(F)F)c2C)c(F)cc1[N+](=O)[O-] [Compound 36] | 20% | 0% | 85% |  | 10% | 55% | 90% |  | 0% | 0% | 10% |  | 20% | 98% | 100% |  | 98% | 100% | 0% | 0% | % plant inhibition ([7]; 0.1785 lb/A): 80%; inhibition at 7.95803 g/ha ([7]; Galium aparine, pre-emergence, 0.0071 lb/A, read-out: % plant inhibition): 0%; inhibition at 200.072 g/ha [7, 17]: 100%; inhibition at 1000.92 g/ha [7, 18]: 100%; % plant inhibition ([8]; 0.893 lb/A): 100% and 50%; inhibition at 7.95803 g/ha ([8]; Alopecurus myosuroides, pre-emergence, 0.0071 lb/A, read-out: % plant inhibition): 0%; inhibition at 40.0143 g/ha ([8]; Alopecurus myosuroides, pre-emergence, 0.0357 lb/A, read-out: % plant inhibition): 0%; inhibition at 7.95803 g/ha [1]: 0%; inhibition at 7.95803 g/ha ([9]; 0.0071 lb/A): 0%; inhibition at 7.95803 g/ha [2, 15]: 0%; inhibition at 7.95803 g/ha [3]: 0%; inhibition at 7.95803 g/ha [4]: 20%; inhibition at 7.95803 g/ha ([10]; 0.0071 lb/A): 0%; inhibition at 40.0143 g/ha ([10]; 0.0357 lb/A): 0%; inhibition at 7.95803 g/ha [5]: 0%; inhibition at 40.0143 g/ha [5]: 15%; inhibition at 7.95803 g/ha [6]: 0%; inhibition at 40.0143 g/ha [6]: 0%
C#CCOc1cc(-c2nn(C)c(C(F)(F)F)c2C)c(F)cc1Cl [Compound 39] | 80% | 95% | 100% |  | 80% | 95% | 100% |  | 100% | 95% | 100% |  | 100% | 100% | 100% |  | 100% | 100% | 55% | 65% | inhibition at 280.212 g/ha [11]: 100%; inhibition at 7.95803 g/ha [1]: 50%; inhibition at 7.95803 g/ha [2, 15]: 10%; inhibition at 280.212 g/ha ([2]; Zea mays, pre-emergence, 0.25 lb/A, read-out: % plant inhibition): 100%; inhibition at 280.212 g/ha [12]: 100%; inhibition at 280.212 g/ha [13]: 100%; inhibition at 7.95803 g/ha [3]: 0%; inhibition at 280.212 g/ha ([3]; 0.25 lb/A): 95%; inhibition at 7.95803 g/ha [4]: 100%; inhibition at 280.212 g/ha [14]: 100%; inhibition at 7.95803 g/ha [5]: 95%; inhibition at 40.0143 g/ha [5]: 100%; inhibition at 280.212 g/ha ([5]; 0.25 lb/A): 100%; inhibition at 7.95803 g/ha [6]: 70%; inhibition at 40.0143 g/ha [6]: 25%
Cc1c(-c2cc(F)c([N+](=O)[O-])cc2F)nn(C)c1C(F)(F)F [Compound 35] | 0% |  | 55% | 90% | 0% |  |  | 55% | 0% | 0% | 40% | 55% | 0% |  | 100% | 100% | 0% | 35% | 0% |  | inhibition at 200.072 g/ha [7, 17]: 30%; inhibition at 1000.92 g/ha [7, 18]: 100%; inhibition at 5043.82 g/ha [7, 18]: 100%; inhibition at 200.072 g/ha [8, 19]: 0%; inhibition at 1000.92 g/ha [8, 20]: 35%; inhibition at 5043.82 g/ha [8, 19]: 80%; % plant inhibition ([1]; 0.893 lb/A): 35%; inhibition at 200.072 g/ha [9]: 0%; inhibition at 1000.92 g/ha [9]: 35%; inhibition at 5043.82 g/ha [9]: 95%; % plant inhibition ([2]; 0.1785 lb/A): 5%; % plant inhibition ([4]; 0.893 lb/A): 98%; inhibition at 200.072 g/ha [10]: 0%; inhibition at 1000.92 g/ha [10]: 0%; inhibition at 5043.82 g/ha [10]: 10%; inhibition at 40.0143 g/ha [5]: 0%; inhibition at 5043.82 g/ha [5]: 80%; inhibition at 40.0143 g/ha [6]: 0%; inhibition at 5043.82 g/ha [6]: 30%
Cc1c(-c2cc(F)ccc2F)nn(C)c1C(F)(F)F [Compound 1, 3-(2,5-Difluorophenyl)-1,4-dimethyl-5-(trifluoromethyl)-1H-pyrazole] |  |  | 0% | 0% |  |  | 0% | 10% |  |  | 0% | 0% |  |  | 0% | 65% |  | 0% |  | 0% | inhibition at 200.072 g/ha [7, 17]: 0%; inhibition at 1000.92 g/ha [7, 18]: 0%; inhibition at 5043.82 g/ha [7, 18]: 0%; inhibition at 200.072 g/ha [8, 19]: 0%; inhibition at 1000.92 g/ha [8, 20]: 0%; inhibition at 5043.82 g/ha [8, 19]: 15%; inhibition at 200.072 g/ha [9]: 0%; inhibition at 1000.92 g/ha [9]: 0%; inhibition at 5043.82 g/ha [9]: 0%; inhibition at 200.072 g/ha [10]: 0%; inhibition at 1000.92 g/ha [10]: 0%; inhibition at 5043.82 g/ha [10]: 10%; inhibition at 5043.82 g/ha [5]: 35%; inhibition at 5043.82 g/ha [6]: 45%
Cn1nc(-c2cc(F)ccc2F)c(C=O)c1C(F)(F)F [Compound 34] |  | 0% | 0% | 0% |  | 0% | 0% | 0% |  | 0% | 0% | 0% |  | 0% | 15% | 75% | 0% | 0% | 0% | 0% | inhibition at 200.072 g/ha [7, 17]: 0%; inhibition at 1000.92 g/ha [7, 18]: 0%; inhibition at 5043.82 g/ha [7, 18]: 10%; inhibition at 200.072 g/ha [8, 19]: 0%; inhibition at 1000.92 g/ha [8, 20]: 0%; inhibition at 5043.82 g/ha [8, 19]: 25%; inhibition at 200.072 g/ha [9]: 0%; inhibition at 1000.92 g/ha [9]: 0%; inhibition at 5043.82 g/ha [9]: 0%; inhibition at 200.072 g/ha [10]: 0%; inhibition at 1000.92 g/ha [10]: 0%; inhibition at 5043.82 g/ha [10]: 5%; inhibition at 5043.82 g/ha [5]: 20%; inhibition at 5043.82 g/ha [6]: 20%
